Here are results for 36 compounds from patent publication US7420056B2, “Substituted bicyclic imidazo-3-ylamine compounds” (Gruenenthal GmbH, priority 2004, dated 2008).

Structures are written as SMILES. Counter-ions that a name gives are not always drawn.

Chain of mGluR5 receptor (I3LUI7 19-1212): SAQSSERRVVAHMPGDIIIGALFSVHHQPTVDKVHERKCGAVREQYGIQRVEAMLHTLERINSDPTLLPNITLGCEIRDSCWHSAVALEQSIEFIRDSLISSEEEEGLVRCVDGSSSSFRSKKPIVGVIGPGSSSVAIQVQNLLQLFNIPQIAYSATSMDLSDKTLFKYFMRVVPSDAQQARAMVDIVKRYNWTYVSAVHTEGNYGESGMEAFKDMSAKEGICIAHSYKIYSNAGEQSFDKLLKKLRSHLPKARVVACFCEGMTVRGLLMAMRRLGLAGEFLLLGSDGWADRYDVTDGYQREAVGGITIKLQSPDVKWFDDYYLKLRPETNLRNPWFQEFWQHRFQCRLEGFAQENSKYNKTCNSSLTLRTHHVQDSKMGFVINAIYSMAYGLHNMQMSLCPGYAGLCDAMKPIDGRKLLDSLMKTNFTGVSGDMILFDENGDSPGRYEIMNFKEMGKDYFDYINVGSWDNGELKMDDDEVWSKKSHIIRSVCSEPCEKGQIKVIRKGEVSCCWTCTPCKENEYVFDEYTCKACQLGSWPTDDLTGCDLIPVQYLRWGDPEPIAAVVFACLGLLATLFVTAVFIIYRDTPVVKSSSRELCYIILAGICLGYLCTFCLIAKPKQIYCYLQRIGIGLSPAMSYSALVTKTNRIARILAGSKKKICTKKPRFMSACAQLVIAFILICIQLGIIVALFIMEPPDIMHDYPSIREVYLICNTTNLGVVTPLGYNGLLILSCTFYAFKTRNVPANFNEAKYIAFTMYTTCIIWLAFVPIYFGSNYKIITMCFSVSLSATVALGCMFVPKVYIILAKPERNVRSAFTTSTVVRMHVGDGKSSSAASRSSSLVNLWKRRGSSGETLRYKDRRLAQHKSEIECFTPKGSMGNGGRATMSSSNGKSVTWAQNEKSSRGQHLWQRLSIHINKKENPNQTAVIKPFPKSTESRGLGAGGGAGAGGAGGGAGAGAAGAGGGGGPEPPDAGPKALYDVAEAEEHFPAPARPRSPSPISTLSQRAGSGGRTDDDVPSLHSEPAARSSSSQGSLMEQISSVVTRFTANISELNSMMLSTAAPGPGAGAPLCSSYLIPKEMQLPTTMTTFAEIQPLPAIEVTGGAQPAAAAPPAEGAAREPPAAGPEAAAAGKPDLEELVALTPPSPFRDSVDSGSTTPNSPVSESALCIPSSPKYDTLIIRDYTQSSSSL

The first test addresses mGluR5 receptor (Sus scrofa, UniProt I3LUI7). Description: Affinity for the mGluR5 receptor: inhibition of 3[H]-MPEP binding in pig brain homogenate. The note with it: 10 μM compound, 5 nM 3[H]-MPEP, read-out: mGluR5 receptor inhibition of ^3[H]-MPEP binding [10 μM] in % at a concentration of the example compounds of 10 μM. The method, boiled down:
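Test compounds were screened at 10 μM for displacement of 5 nM [3H]-MPEP from pig brain homogenate (450 μg protein, pH 8.0 Hepes buffer) over 60 min at room temperature. After filtration, scintillation counting gave the read-out. 10 μM unlabelled MPEP set nonspecific binding.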
As to `Cc1cc(Br)c2nc(-c3cccc(C#Cc4cccc(C)n4)c3)c(NC(C)(C)CC(C)(C)C)n2c1` [Example 210, 8-bromo-6-methyl-2-(3-((6-methylpyridin-2-yl)ethynyl)phenyl)-N-(2,4,4-trimethylpentan-2-yl)imidazo[1,2-a]pyridin-3-amine], the inhibition at 10 µM was 68%.
Same read-out and setting: under `CC(C)(C)CC(C)(C)Nc1c(-c2cccc(C#Cc3ccccn3)c2)nc2ncccn12` [Example 255, 2-(3-(pyridin-2-ylethynyl)phenyl)-N-(2,4,4-trimethylpentan-2-yl)imidazo[1,2-a]pyrimidin-3-amine] stands 81%; under `Cc1ccc2nc(-c3ccc(C#Cc4ccccn4)s3)c(NC3CCCCC3)n2c1` [Example 269, N-cyclohexyl-6-methyl-2-(5-(pyridin-2-ylethynyl)thiophen-2-yl)imidazo[1,2-a]pyridin-3-amine], 94%.
In the case of `C(#Cc1ccc(-c2nc3cnccn3c2NC2CCCC2)o1)c1ccccn1` [Example 245, N-cyclopentyl-2-(5-(pyridin-2-ylethynyl)furan-2-yl)imidazo[1,2-a]pyrazin-3-amine], the inhibition at 10 µM is 92%.
Regarding `Cc1cccc(C#Cc2cccc(-c3nc4ccccn4c3NC3CCCCC3)c2)n1` [Example 288, N-cyclohexyl-2-(3-((6-methylpyridin-2-yl)ethynyl)phenyl)imidazo[1,2-a]pyridin-3-amine], the inhibition at 10 µM was found to be 89%.
Same read-out and setting: for `Cc1ccc2nc(-c3ccc(C#Cc4ccccc4)s3)c(NC(C)(C)C)n2c1` [Example 19, tert-butyl-[6-methyl-2-(5-phenylethynyl-thiophen-2-yl)-imidazo[1,2-a]pyridin-3-yl]-amine] the value was 78%; for `Cc1cc(C)n2c(NCCc3ccccc3)c(-c3ccc(C#Cc4ccccc4)s3)nc2n1` [Example 194, 5,7-dimethyl-N-phenethyl-2-(5-(phenylethynyl)thiophen-2-yl)imidazo[1,2-a]pyrimidin-3-amine], 30%.
Same read-out and setting: under `Cc1cccn2c(NCc3ccc(Cl)cc3)c(-c3ccc(C#Cc4ccccc4)s3)nc12` [Example 198, N-(4-chlorobenzyl)-8-methyl-2-(5-(phenylethynyl)thiophen-2-yl)imidazo[1,2-a]pyridin-3-amine] stands 67%; under `Cc1cccn2c(Nc3ccc(F)cc3)c(-c3cccc(C#Cc4ccccn4)c3)nc12` [Example 296, N-(4-fluorophenyl)-8-methyl-2-(3-(pyridin-2-ylethynyl)phenyl)imidazo[1,2-a]pyridin-3-amine], 85%.
On to `CC(C)c1ccn2c(NC(C)(C)C)c(-c3cccc(C#Cc4ccccn4)c3)nc2c1` [Example 306, N-tert-butyl-7-isopropyl-2-(3-(pyridin-2-ylethynyl)phenyl)imidazo[1,2-a]pyridin-3-amine], for which the inhibition at 10 µM stood at 76%.
Same read-out and setting: under `Nc1c(-c2ccc(C#Cc3ccccc3)s2)nc2cnccn12` [Example 83, 2-(5-phenylethynyl-thiophen-2-yl)-imidazo[1,2-a]pyrazin-3-ylamine] stands 35%; under `Cc1c(Br)ccc2nc(-c3cc(C#Cc4ccccc4)cs3)c(NCc3ccc(Cl)cc3)n12` [Example 231, 6-bromo-N-(4-chlorobenzyl)-5-methyl-2-(4-(phenylethynyl)thiophen-2-yl)imidazo[1,2-a]pyridin-3-amine], 62%.
Consider `C(#Cc1ccc(-c2nc3cnccn3c2NCC2CCCCC2)s1)c1ccccc1` [Example 8, cyclohexylmethyl-[2-(5-phenylethynyl-thiophen-2-yl)-imidazo[1,2-a]pyrazin-3-yl]-amine], for which the inhibition at 10 µM came to 100%.
Still for that read-out and setting: for `CCc1ccn2c(Nc3ccccc3F)c(-c3ccc(C#Cc4ccccc4)s3)nc2c1` [Example 48, [7-ethyl-2-(5-phenylethynyl-thiophen-2-yl)-imidazo[1,2-a]pyridin-3-yl]-(2-fluoro-phenyl)-amine] the value was 82%.
Consider `C(#Cc1ccccn1)c1cccc(-c2nc3cnccn3c2NC2CCCCC2)c1` [Example 238, N-cyclohexyl-2-(3-(pyridin-2-ylethynyl)phenyl)imidazo[1,2-a]pyrazin-3-amine], for which the inhibition at 10 µM came out at 92%.
On the same count and under the same terms, under `CCc1ccn2c(NC(C)(C)C)c(-c3ccc(C#Cc4ccccc4)nc3)nc2c1` [Example 303, N-tert-butyl-7-ethyl-2-(6-(phenylethynyl)pyridin-3-yl)imidazo[1,2-a]pyridin-3-amine] stands 67%; under `Cc1cccn2c(NC(C)c3ccccc3)c(-c3ccc(C#Cc4ccccc4)s3)nc12` (stereo not drawn) [Example 35, [8-methyl-2-(5-phenylethynyl-thiophen-2-yl)-imidazo[1,2-a]pyridin-3-yl]-(1-phenyl-ethyl)-amine], 95%.
Still for that read-out and setting: under `COc1ccccc1CNc1c(-c2ccc(C#Cc3ccccc3)s2)nc2cc(C)ccn12` [Example 37, (2-methoxy-benzyl)-[7-methyl-2-(5-phenylethynyl-thiophen-2-yl)-imidazo[1,2-a]pyridin-3-yl]-amine] stands 85%.

Still in this test, the particulars now being: 3[H]-MPEP binding.
For orientation: IC50 means the concentration at which inhibition is half-maximal. `Cc1ccsc1C#Cc1ccc(-c2nc3cnccn3c2NC(C)(C)C)s1` [Example 137, N-tert-butyl-2-(5-((3-methylthiophen-2-yl)ethynyl)thiophen-2-yl)imidazo[1,2-a]pyrazin-3-amine] showed an IC50 of 860 nM. This counts as sub-micromolar.
The same measure, in the same setting: under `Cc1cccc(C#Cc2cccc(-c3nc4cnccn4c3NC(C)(C)C)c2)n1` [Example 117, N-tert-butyl-2-(3-((6-methylpyridin-2-yl)ethynyl)phenyl)imidazo[1,2-a]pyrazin-3-amine] stands 880 nM; under `CC(C)(C)Nc1c(-c2ccc(C#Cc3ccsc3)s2)nc2cnccn12` [Example 156, N-tert-butyl-2-(5-(thiophen-3-ylethynyl)thiophen-2-yl)imidazo[1,2-a]pyrazin-3-amine hydrochloride], 27 nM.
`CC(C)(C)Nc1c(-c2ccc(C#Cc3ccccn3)s2)nc2c(Cl)nccn12` [Example 167, N-tert-butyl-8-chloro-2-(5-(pyridin-2-ylethynyl)thiophen-2-yl)imidazo[1,2-a]pyrazin-3-amine] returned an IC50 of 12 nM.
Same read-out and setting: for `CN(c1c(-c2ccc(C#Cc3ccccc3)s2)nc2cnccn12)C(C)(C)C` [Example 89, N-tert-butyl-N-methyl-2-(5-(phenylethynyl)thiophen-2-yl)imidazo[1,2-a]pyrazin-3-amine] the value was 45 nM.
Same read-out and setting: for `Cc1ccnc(C#Cc2ccc(-c3nc4cnccn4c3NC(C)(C)C)s2)c1` [Example 130, N-tert-butyl-2-(5-((4-methylpyridin-2-yl)ethynyl)thiophen-2-yl)imidazo[1,2-a]pyrazin-3-amine hydrochloride] the value was 37 nM.
The compound `CNc1c(-c2ccc(C#Cc3ccccc3)s2)nc2cnccn12` [Example 66, methyl-[2-(5-phenylethynyl-thiophen-2-yl)-imidazo[1,2-a]pyrazin-3-yl]-amine] had an IC50 of 3170 nM. This IC50 is about 86-fold higher than that of the compound before.
The same measure, in the same setting: for `CC(C)(C)Nc1c(-c2cnc(C#Cc3ccccn3)s2)nc2cnccn12` [Example 181, N-tert-butyl-2-(2-(pyridin-2-ylethynyl)thiazol-5-yl)imidazo[1,2-a]pyrazin-3-amine] the value was 18 nM; for `Cc1ccc(C#Cc2ccc(-c3nc4cnccn4c3NC(C)(C)C)s2)nc1` [Example 131, N-tert-butyl-2-(5-((5-methylpyridin-2-yl)ethynyl)thiophen-2-yl)imidazo[1,2-a]pyrazin-3-amine hydrochloride], 140 nM.
Same read-out and setting: under `CC(C)(C)Nc1c(-c2ccc(C#Cc3cccc(N)c3)s2)nc2cnccn12` [Example 123, 2-(5-((3-aminophenyl)ethynyl)thiophen-2-yl)-N-tert-butylimidazo[1,2-a]pyrazin-3-amine hydrochloride] stands 14 nM; under `C(#Cc1ccc(-c2nc3cnccn3c2NCc2ccccc2)s1)c1ccccc1` [Example 74, benzyl-[2-(5-phenylethynyl-thiophen-2-yl)-imidazo[1,2-a]pyrazin-3-yl]-amine], 1100 nM; under `CC(C)(C)Nc1c(-c2cnc(C#Cc3ccncc3)s2)nc2cnccn12` [Example 177, N-tert-butyl-2-(2-(pyridin-4-ylethynyl)thiazol-5-yl)imidazo[1,2-a]pyrazin-3-amine], 16 nM.
Still for that read-out and setting: for `CC(C)(C)Nc1c(-c2ccc(C#Cc3nccs3)s2)nc2ccccn12` [Example 332, tert-butyl-[2-(5-thiazol-2-ylethynyl-thiophen-2-yl)-imidazo[1,2-a]pyridin-3-yl]-amine hydrochloride] the value was 14 nM; for `CC(Nc1c(-c2ccc(C#Cc3ccccc3)s2)nc2cnccn12)c1ccccc1` (stereo not drawn) [Example 31, (1-phenyl-ethyl)-[2-(5-phenylethynyl-thiophen-2-yl)-imidazo[1,2-a]pyrazin-3-yl]-amine], 530 nM.
Take `CC(C)(C)Nc1c(-c2ccc(C#Cc3ccccn3)o2)nc2cnccn12` [Example 119, N-tert-butyl-2-(5-(pyridin-2-ylethynyl)furan-2-yl)imidazo[1,2-a]pyrazin-3-amine]: the IC50 came out at 36 nM. Compared with the last compound, the IC50 is about 15-fold lower.
`CNc1c(-c2ccc(C#Cc3ccccn3)s2)nc2cnccn12` [Example 322, N-methyl-2-(5-(pyridin-2-ylethynyl)thiophen-2-yl)imidazo[1,2-a]pyrazin-3-amine] had an IC50 of 120 nM.
As for `CC(C)(C)Nc1c(-c2ccc(C#Cc3cccc(F)n3)s2)nc2cnccn12` [Example 165, N-tert-butyl-2-(5-((6-fluoropyridin-2-yl)ethynyl)thiophen-2-yl)imidazo[1,2-a]pyrazin-3-amine], the IC50 worked out at 18 nM.
On the same count and under the same terms, for `Cc1cccc(C#Cc2ccc(-c3nc4cnccn4c3NC(C)(C)CC(C)(C)C)s2)n1` [Example 86, 2-(5-((6-methylpyridin-2-yl)ethynyl)thiophen-2-yl)-N-(2,4,4-trimethylpentan-2-yl)imidazo[1,2-a]pyrazin-3-amine] the value was 320 nM.
